# Legend:
# CLK4 = CLK4 (Homo sapiens, UniProt Q9HAZ1); assay: SelectScreen LanthaScreen Binding; conditions: 1000 nM
# Summary of the method: (§1)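 A counterscreen of 133 protein and 7 lipid kinases was run with one compound concentration, 1 μM 1938, in SelectScreen Adapta, Lantha or Z-LYTE assays.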
# DMPK = biological target: T1, DMPK (Homo sapiens, UniProt Q09013); assay: SelectScreen LanthaScreen Binding; conditions: 1000 nM
# T1 sequence (Q09013 1-629): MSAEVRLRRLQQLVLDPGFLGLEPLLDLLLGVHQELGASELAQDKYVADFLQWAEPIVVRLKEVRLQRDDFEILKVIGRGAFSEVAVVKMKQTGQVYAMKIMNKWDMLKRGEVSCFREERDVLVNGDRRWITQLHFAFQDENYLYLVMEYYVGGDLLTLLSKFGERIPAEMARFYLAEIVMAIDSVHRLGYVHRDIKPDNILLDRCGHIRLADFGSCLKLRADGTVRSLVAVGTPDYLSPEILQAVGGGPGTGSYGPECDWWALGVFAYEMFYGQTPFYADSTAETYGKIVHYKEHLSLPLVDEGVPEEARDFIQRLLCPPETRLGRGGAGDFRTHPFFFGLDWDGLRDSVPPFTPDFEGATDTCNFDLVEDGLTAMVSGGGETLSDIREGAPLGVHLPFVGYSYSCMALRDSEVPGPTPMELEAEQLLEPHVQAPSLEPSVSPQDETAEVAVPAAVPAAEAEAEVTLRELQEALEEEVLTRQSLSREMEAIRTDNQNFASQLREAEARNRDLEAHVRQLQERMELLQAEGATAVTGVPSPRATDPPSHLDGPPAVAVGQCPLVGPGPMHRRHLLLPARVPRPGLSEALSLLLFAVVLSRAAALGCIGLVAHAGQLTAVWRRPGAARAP
# Summary of the method: as §1
# FGFR1 V561M = FGFR1 V561M (Homo sapiens, UniProt P11362, V561M); assay: SelectScreen LanthaScreen Binding; conditions: 1000 nM
# FGFR1 V561M, sequence (P11362 22-822 V561M): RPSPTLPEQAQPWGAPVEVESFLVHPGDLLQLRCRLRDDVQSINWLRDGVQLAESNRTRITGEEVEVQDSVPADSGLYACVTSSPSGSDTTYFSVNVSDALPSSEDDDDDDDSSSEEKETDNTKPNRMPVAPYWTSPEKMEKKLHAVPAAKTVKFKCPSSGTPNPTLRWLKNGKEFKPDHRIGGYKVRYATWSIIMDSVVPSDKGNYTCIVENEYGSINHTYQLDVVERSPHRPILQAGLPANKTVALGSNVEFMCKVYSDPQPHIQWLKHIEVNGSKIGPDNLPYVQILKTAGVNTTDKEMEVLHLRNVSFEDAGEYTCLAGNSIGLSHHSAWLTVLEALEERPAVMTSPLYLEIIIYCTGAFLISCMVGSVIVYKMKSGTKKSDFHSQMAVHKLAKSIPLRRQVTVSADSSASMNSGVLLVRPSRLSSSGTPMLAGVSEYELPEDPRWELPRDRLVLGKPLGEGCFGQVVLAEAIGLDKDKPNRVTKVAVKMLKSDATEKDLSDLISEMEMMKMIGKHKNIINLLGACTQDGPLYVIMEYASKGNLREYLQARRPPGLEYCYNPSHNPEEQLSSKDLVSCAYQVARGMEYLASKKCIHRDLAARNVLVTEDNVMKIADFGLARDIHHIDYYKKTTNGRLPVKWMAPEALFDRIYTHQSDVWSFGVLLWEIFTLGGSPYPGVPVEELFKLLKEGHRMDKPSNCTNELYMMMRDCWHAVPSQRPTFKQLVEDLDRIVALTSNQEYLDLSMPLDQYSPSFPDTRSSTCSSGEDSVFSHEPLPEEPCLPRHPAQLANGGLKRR
# Summary of the method: as §1
# PI3Kα-KO MEFs = assay: CellTiter-Glo cell assay, PI3Kα-KO MEFs; type: cell-based, mouse; conditions: 24h
# Description: MEFs were seeded at 5000 cells per well in 96-well plates in DMEM supplemented with 10% FBS and 1% P/S, and allowed to attach overnight. The next day, cells were serum starved for 4 h prior to compound treatment in fresh serum-free DMEM. Compounds solubilised in DMSO were diluted 1:2 in a 12-point concentration response curve in DMSO. Intermediate plates were prepared by transferring 4 μl of compounds in DMSO into 96 μl of serum-free DMEM media. This was then used to treat cell plates by transferring 12.5 μl of solution from the intermediate plate into 87.5 μl of serum-free DMEM in the cell plates. […] Cell plates were incubated for 24 h, 48 h or 72 h at 37°C, 5% CO2, followed by determination of cell survival using the CellTiter-Glo® reagent according to manufacturer’s instructions (Promega #G7571). Endpoint luminescence was measured using CLARIOstar (BMG). Compound data were analyzed using GraphPad Prism 8.
# CLK4, sequence (Q9HAZ1 whole entry): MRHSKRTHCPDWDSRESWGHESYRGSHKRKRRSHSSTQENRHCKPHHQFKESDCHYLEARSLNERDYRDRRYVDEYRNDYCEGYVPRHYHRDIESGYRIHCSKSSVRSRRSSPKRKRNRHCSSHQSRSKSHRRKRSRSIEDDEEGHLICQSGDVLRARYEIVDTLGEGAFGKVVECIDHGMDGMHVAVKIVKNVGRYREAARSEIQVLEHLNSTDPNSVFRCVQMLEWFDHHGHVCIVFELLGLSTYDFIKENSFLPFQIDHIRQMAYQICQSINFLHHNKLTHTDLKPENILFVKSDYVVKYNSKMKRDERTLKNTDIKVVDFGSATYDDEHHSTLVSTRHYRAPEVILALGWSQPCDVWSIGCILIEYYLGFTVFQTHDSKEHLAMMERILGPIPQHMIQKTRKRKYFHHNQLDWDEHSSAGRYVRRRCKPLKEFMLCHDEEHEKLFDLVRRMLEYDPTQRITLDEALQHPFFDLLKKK
smiles,measurement,setting,value
CCN1CCN(c2ccc(Nc3cc(Nc4cccc5c4N(C(C)=O)CC5)ccn3)cc2)CC1 [Compound 1938],% Displacement Point 1,CLK4,1.72%
same,% Displacement Point 2,CLK4,6.61%
same,% Displacement mean,CLK4,4%
same,% Displacement Point 1,DMPK,4.22%
same,% Displacement Point 2,DMPK,0.782%
same,% Displacement mean,DMPK,2.5%
same,% Displacement Point 1,FGFR1 V561M,8%
same,% Displacement Point 2,FGFR1 V561M,8.43%
same,% Displacement mean,FGFR1 V561M,8%
same,concentrations with a decrease in ATP levels (PI3Kα-independent effects),PI3Kα-KO MEFs,> 7.5 µM

# Reference: article PMC7614683, “A small molecule PI3Kα activator for cardioprotection and neuroregeneration” (Nature, 2023)
